Experimental data reported in doi:10.1101/2025.07.03.662948v1 (biorxiv, 2025).

B1: MtbCBS (Mycobacterium tuberculosis cystathionine β-synthase) (Mycobacterium tuberculosis H37Rv) (protein)
chain: MRIAQHISELIGGTPLVRLNSVVPDGAGTVAAKVEYLNPGGSSKDRIAVKMIEAAEASGQLKPGGTIVEPTSGNTGVGLALVAQRRGYKCVFVCPDKVSEDKRNVLIAYGAEVVVCPTAVPPHDPASYYSVSDRLVRDIDGAWKPDQYANPEGPASHYVTTGPEIWADTEGKVTHFVAGIGTGGTITGAGRYLKEVSGGRVRIVGADPEGSVYSGGAGRPYLVEGVGEDFWPAAYDPSVPDEIIAVSDSDSFDMTRRLAREEAMLVGGSCGMAVVAALKVAEEAGPDALIVVLLPDGGRGYMSKIFNDAWMSSYGFLRSRLDGSTEQSTVGDVLRRKSGALPALVHTHPSETVRDAIGILREYGVSQMPVVGAEPPVMAGEVAGSVSERELLSAVFEGRAKLADAVSAHMSPPLRMIGAGELVSAAGKALRDWDALMVVEEGKPVGVITRYDLLGFLSEGAGRR

Tests used:
[1] = target: T1, MtbCBS (Mycobacterium tuberculosis cystathionine β-synthase) (Mycobacterium tuberculosis, UniProt P9WP51); experiment: fluorescence of PLP aldimine; assay type: biochemical
T1 sequence (P9WP51 1-464): B1 chain

purified protein = substrate: N[C@@H](CS)C(=O)O; experiment: purified protein; details: pH 7.5; 25.0 °C

Molecule	IC50 [1] [µM]	Km (purified protein) [mM]
NOCC(=O)O [AOAA]	~100	
B1		15.47
